Test results taken from PMC2850174 (The Journal of biological chemistry, 2007).

How the values were obtained:
HEX-3 = biological target: T1, HEX-3 (Caenorhabditis elegans, UniProt A7DY67); test: GnGn-PA digestion, RP-HPLC; format: biochemical; conditions: read-out: % inhibition at 200 μM
T1 sequence (A7DY67 31-591 limits assumed): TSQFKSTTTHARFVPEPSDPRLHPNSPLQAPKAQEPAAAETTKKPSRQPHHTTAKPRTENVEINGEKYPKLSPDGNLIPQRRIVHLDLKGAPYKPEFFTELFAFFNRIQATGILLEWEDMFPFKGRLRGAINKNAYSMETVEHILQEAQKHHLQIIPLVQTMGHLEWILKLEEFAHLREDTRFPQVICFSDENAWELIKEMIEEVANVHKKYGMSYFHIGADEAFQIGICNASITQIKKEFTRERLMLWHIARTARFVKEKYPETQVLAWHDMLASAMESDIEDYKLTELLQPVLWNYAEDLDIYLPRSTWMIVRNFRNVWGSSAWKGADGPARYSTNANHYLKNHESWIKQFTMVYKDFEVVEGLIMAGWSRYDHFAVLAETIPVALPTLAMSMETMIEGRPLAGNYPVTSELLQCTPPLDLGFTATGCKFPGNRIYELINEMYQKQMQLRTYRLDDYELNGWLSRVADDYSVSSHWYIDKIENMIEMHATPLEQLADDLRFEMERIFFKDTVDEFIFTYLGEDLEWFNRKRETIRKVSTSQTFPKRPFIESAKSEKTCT

HEX-2 = biological target: T2, HEX-2 (Caenorhabditis elegans, UniProt G5EFL1); test: GnGn-PA digestion, RP-HPLC; format: biochemical; conditions: read-out: % inhibition at 200 μM
T2 sequence (G5EFL1 36-596 limits assumed): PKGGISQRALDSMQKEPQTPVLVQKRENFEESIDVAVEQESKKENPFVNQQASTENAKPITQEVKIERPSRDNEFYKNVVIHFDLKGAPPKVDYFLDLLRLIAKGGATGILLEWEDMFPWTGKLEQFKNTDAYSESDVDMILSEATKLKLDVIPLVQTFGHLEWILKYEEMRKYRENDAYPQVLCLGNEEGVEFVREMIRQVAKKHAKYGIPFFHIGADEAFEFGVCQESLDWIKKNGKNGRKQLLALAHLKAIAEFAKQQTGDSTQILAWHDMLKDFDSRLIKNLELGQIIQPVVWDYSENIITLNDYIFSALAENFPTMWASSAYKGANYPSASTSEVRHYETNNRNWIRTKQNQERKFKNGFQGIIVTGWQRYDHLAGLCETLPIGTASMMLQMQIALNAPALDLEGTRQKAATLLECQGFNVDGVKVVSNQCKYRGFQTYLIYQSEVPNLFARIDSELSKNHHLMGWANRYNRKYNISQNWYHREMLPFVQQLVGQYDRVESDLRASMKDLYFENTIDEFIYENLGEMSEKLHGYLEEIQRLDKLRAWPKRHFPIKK

AtHEX1 [1] = biological target: T3, AtHEX1 (Arabidopsis thaliana, UniProt Q8L7S6); test: p-nitrophenylglycoside hydrolysis assay; format: biochemical
T3 sequence (Q8L7S6 25-535 limits assumed): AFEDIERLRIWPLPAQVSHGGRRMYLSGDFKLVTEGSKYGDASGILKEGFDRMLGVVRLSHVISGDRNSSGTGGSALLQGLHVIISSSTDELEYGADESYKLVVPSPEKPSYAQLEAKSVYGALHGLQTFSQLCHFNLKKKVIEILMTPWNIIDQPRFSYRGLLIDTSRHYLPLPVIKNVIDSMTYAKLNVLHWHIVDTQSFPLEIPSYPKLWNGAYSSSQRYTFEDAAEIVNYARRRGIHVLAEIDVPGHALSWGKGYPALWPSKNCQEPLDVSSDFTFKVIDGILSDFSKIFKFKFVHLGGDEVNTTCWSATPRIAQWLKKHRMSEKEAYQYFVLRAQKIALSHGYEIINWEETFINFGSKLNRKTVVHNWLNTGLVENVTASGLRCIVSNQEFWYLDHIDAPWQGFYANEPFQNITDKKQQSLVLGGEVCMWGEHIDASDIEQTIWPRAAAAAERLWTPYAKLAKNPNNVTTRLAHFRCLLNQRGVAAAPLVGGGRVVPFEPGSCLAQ

HEX-1 = biological target: T4, HEX-1 (Caenorhabditis elegans, UniProt Q22492); test: p-nitrophenylglycoside hydrolysis assay, Dixon plot; format: biochemical
T4 sequence (Q22492 19-555 limits assumed): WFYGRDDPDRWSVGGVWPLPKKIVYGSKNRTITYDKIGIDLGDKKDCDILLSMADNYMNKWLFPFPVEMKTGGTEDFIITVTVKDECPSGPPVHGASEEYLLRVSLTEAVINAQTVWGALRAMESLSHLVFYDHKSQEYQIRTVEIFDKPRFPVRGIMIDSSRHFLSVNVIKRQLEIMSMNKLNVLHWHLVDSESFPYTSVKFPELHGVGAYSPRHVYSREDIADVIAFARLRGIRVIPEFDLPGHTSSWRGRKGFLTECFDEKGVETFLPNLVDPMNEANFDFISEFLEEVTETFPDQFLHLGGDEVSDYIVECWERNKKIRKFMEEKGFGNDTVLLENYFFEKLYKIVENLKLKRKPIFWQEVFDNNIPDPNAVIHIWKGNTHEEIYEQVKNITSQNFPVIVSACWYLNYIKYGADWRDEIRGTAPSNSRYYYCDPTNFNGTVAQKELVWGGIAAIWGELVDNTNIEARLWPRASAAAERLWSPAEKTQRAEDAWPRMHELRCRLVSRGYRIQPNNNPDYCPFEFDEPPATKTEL

AtHEX1 [2] = biological target: T3, AtHEX1; test: p-nitrophenylglycoside hydrolysis assay, single concentration; format: biochemical; conditions: read-out: % inhibition at 0.1 mM
purified protein = substrate: CC(=O)N[C@H]1[C@H](Oc2ccc([N+](=O)[O-])cc2)O[C@H](CO)[C@@H](O)[C@@H]1O; test: purified protein

CC(=O)N[C@H]1CN2CC[C@H](O)[C@@H]2[C@@H](O)[C@@H]1O
inhibition at 200 µM (HEX-3): ~80%
inhibition at 200 µM (HEX-2): ~80%

CC(=O)N[C@H]1CN[C@H](CO)[C@@H](O)[C@@H]1O [2-acetamido-1,2-dideoxynojirimycin, 2-acetamido-1,2,5-trideoxy-1,5-imino-D-glucitol]
p-nitrophenylglycoside hydrolysis assay (about 50% inhibition at 0.2 mM) (AtHEX1 [1]): about 50% inhibition at 0.2
Ki (HEX-1): ~1000 µM

CC(=O)N[C@H]1/C(=N/OC(=O)Nc2ccccc2)O[C@H](CO)[C@@H](O)[C@@H]1O [PUGNAc, O-(2-acetamido-2-deoxy-D-glucopyranosylidene)amino N-phenylcarbamate]
inhibition at 100 µM (AtHEX1 [2]): ~90%
Ki (HEX-1): ~2 µM

B1: HEX-1 (Caenorhabditis elegans) (protein)
chain: WFYGRDDPDRWSVGGVWPLPKKIVYGSKNRTITYDKIGIDLGDKKDCDILLSMADNYMNKWLFPFPVEMKTGGTEDFIITVTVKDECPSGPPVHGASEEYLLRVSLTEAVINAQTVWGALRAMESLSHLVFYDHKSQEYQIRTVEIFDKPRFPVRGIMIDSSRHFLSVNVIKRQLEIMSMNKLNVLHWHLVDSESFPYTSVKFPELHGVGAYSPRHVYSREDIADVIAFARLRGIRVIPEFDLPGHTSSWRGRKGFLTECFDEKGVETFLPNLVDPMNEANFDFISEFLEEVTETFPDQFLHLGGDEVSDYIVECWERNKKIRKFMEEKGFGNDTVLLENYFFEKLYKIVENLKLKRKPIFWQEVFDNNIPDPNAVIHIWKGNTHEEIYEQVKNITSQNFPVIVSACWYLNYIKYGADWRDEIRGTAPSNSRYYYCDPTNFNGTVAQKELVWGGIAAIWGELVDNTNIEARLWPRASAAAERLWSPAEKTQRAEDAWPRMHELRCRLVSRGYRIQPNNNPDYCPFEFDEPPATKTEL
Km (purified protein): 1.1 mM
